Results published in US10981932B2, “Macrocyclic indole derivatives” (Bayer Aktiengesellschaft, priority 2016, dated 2021).
Where “and” joins values, the source holds several entries; their conditions need not be identical. Identical values can stand only once. Counter-ions that a name gives are not always drawn. Like-named read-outs stand apart in the source and are kept apart here.

Assays:
SUDHL10 [1] = assay: Induction of cytotoxicity (CellTiter-Glo, 5 h), SUDHL10
SUDHL10 [2] = assay: Anti-proliferative effect (CellTiter-Glo, 72 h), SUDHL10; assay type: cell-based; details: SUDHL10 cells, antiproliferation, 72 h incubation, median, read-out: Antiproli SUDHL10 [M] (median)
Procedure, shortened: (§1)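 A time zero plate, read with CellTiter-Glo shortly after seeding, served as baseline; compound-treated plates were incubated 72 h at 37 °C and then read identically by luminescence.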

SUDHL5 [3] = assay: Anti-proliferative effect (CellTiter-Glo, 72 h), SUDHL5; assay type: cell-based; details: SUDHL5 cells, antiproliferation, 72 h incubation, median, read-out: Antiproli SUDHL5 [M] (median)
Procedure, shortened: as §1

SUDHL5 [4] = assay: Induction of cytotoxicity (CellTiter-Glo, 5 h), SUDHL5
SUDHL5 [5] = assay: Induction of caspase-3/7 activity (Caspase-Glo 3/7), SUDHL5; assay type: cell-based; details: caspase-3/7 induction, SUDHL5 cells, 3 h treatment, median
Procedure, shortened: (§2)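 DLBCL cells treated with compounds for 3 h at 37 °C, then caspase-3/7 activity read by Caspase-Glo 3/7 luminescence. Medium-only background subtracted; EC50 fitted with C0 fixed at 1 and top set to the reference compound's maximal induction.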

A2780 = assay: Anti-proliferative effect (CellTiter-Glo, 72 h), A2780; assay type: cell-based; details: A2780 cells, median, read-out: IC50 antiproliferation assay A2780 [M] (median)
Procedure, shortened: as §1

SUDHL10 [6] = assay: Induction of caspase-3/7 activity (Caspase-Glo 3/7), SUDHL10; assay type: cell-based; details: caspase-3/7 induction, SUDHL10 cells, 3 h treatment, median
Procedure, shortened: as §2

MCL-1 = MCL-1 (Homo sapiens, UniProt Q07820); assay: Protein-protein interaction assay MCL-1/Noxa BH3 peptide (MCL-1 assay), TR-FRET; assay type: binding; details: MBP-MCL-1 / Noxa BH3-derived peptide, median
Procedure, shortened: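 TR-FRET, 665/622 nm emission ratio (excitation 330–350 nm), measured MCL-1/Noxa complex formation. 1 nM MBP-MCL-1, 50 mM Tris/HCl pH 7, 0.1% BGG, 2 mM DTT. Incubation 1 h at 22 °C, then overnight at 4 °C. IC50 by 4-parameter regression, normalized to DMSO (0%) and no-MCL-1 (100%) controls.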

[7] = Homo sapiens, SU-DHL10, 5 h, read-out: Cytotox SUDHL10 [M] (median), SUDHL10 cells, cytotoxicity induction, CellTiter-Glo, 5 h incubation, median
[8] = read-out: Cytotox SUDHL10 [M] (median), SUDHL10 cells, cytotoxicity induction, CellTiter-Glo, 5 h incubation, median
[9] = read-out: Cytotox SUDHL5 [M] (median), SUDHL5 cells, cytotoxicity induction, CellTiter-Glo, 5 h incubation, median

Sequence of MCL-1 (Q07820 whole entry): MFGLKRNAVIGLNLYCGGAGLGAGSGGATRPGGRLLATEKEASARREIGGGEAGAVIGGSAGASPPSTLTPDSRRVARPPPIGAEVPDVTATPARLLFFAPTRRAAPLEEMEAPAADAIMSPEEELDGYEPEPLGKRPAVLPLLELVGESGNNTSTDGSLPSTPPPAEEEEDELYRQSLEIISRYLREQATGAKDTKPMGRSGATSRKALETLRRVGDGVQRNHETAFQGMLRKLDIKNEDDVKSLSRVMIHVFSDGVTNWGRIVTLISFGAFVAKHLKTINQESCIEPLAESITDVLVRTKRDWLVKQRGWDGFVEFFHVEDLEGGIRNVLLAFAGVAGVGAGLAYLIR

SMILES	IC50 (SUDHL10 [2]; Homo sapiens, SU-DHL10, 72 h) [M]	IC50 (SUDHL5 [3]; Homo sapiens, SU-DHL-5, 72 h) [M]	EC50 (SUDHL5 [5]; Homo sapiens, SU-DHL-5, 3 h) [nM]	IC50 (A2780; Homo sapiens, A2780, 72 h) [M]	EC50 (SUDHL10 [6]; Homo sapiens, SU-DHL10, 3 h) [µM]	IC50 (MCL-1) [nM]	IC50 (SUDHL5 [3]) [M]	EC50 (SUDHL5 [5]) [nM]	EC50 (SUDHL10 [6]) [µM]	IC50 (SUDHL10 [2]) [M]	IC50 (A2780)	IC50 (SUDHL10 [1]; [7]) [M]	IC50 (SUDHL5 [4]; Homo sapiens, SU-DHL-5, 5 h, read-out: Cytotox SUDHL5 [M] (median), SUDHL5 cells, cytotoxicity induction, CellTiter-Glo, 5 h incubation, median)	IC50 (SUDHL10 [1]; [8]) [M]	IC50 (SUDHL5 [4]; [9]) [M]
COCCn1nc2c(c1CN1CCOCC1)-c1cccc3c(CCCOc4cccc5ccccc45)c(C(=O)O)n(c13)CCCN(C)C2 (single isomer, unassigned; enantiomer 1) [Example 057, 10-(2-methoxyethyl)-7-methyl-11-(morpholin-4-ylmethyl)-1-[3-(naphthalen-1-yloxy)propyl]-4,5,6,7,8,10-hexahydropyrazolo[3′,4′:7,8][1,5]diazecino[9,10,1-hi]indole-2-carboxylic Acid (Enantiomer 1)]	1.21e-05	1.04e-05	27900	3.01e-05	24.7	45.3						2.39e-05	2.5e-05		
Cc1c2c(nn1CCN1CCOCC1)CN(C)CCCn1c(C(=O)O)c(CCCOc3cccc4ccccc34)c3cccc-2c31 (single isomer, unassigned; enantiomer 1) [Example 060, 7,11-dimethyl-10-[2-(morpholin-4-yl)ethyl]-1-[3-(naphthalen-1-yloxy)propyl]-4,5,6,7,8,10-hexahydropyrazolo[3′,4′:7,8][1,5]diazecino[9,10,1-hi]indole-2-carboxylic Acid (Enantiomer 1)]	1.16e-05			2.21e-05		5.44	1.79e-06	5130	8.54					7.87e-06	4.3e-06
Cc1ccc2c(CCCOc3cccc4ccccc34)c(C(=O)O)n3c2c1-c1c(nn(C)c1C)CN(C)CCC3 (single isomer, unassigned; enantiomer 1) [Example 073, 7,10,11,12-tetramethyl-1-[3-(naphthalen-1-yloxy)propyl]-4,5,6,7,8,10-hexahydropyrazolo[3′,4′:7,8][1,5]diazecino[9,10,1-hi]indole-2-carboxylic Acid (Enantiomer 1)]	6.86e-06			1.4e-05		2.06	3.23e-06	2120	2.94					3.67e-06	1.79e-06
CCn1nc2c(c1C1CC1)-c1cccc3c(CCCOc4cccc5ccccc45)c(C(=O)O)n(c13)CCCCOC2 (single isomer, unassigned; enantiomer 1) [Example 082, 3-cyclopropyl-2-ethyl-7-[3-(naphthalen-1-yloxy)propyl]-2,10,11,12,13,15-hexahydropyrazolo[4′,3′:9,10][1,6]oxazacycloundecino[8,7,6-hi]indole-8-carboxylic acid-N-ethylethanamine Salt (Enantiomer 1)]	7.79e-06	1.81e-05		1.68e-05	30.5	4.37		8690				> 3.3e-05			8.19e-06
COCCn1nc2c(c1C1CC1)-c1cccc3c(CCCOc4cccc5ccccc45)c(C(=O)O)n(c13)CCCCOC2 (single isomer, unassigned; enantiomer 1) [Example 085, 3-Cyclopropyl-2-(2-methoxyethyl)-7-[3-(naphthalen-1-yloxy)propyl]-2,10,11,12,13,15-hexahydropyrazolo[4′,3′:9,10][1,6]oxazacycloundecino[8,7,6-hi]indole-8-carboxylic acid-N-ethylethanamine Salt (Enantiomer 1)]				2.15e-05		4.51	6.22e-06	3590	15.5	3.08e-06		1.97e-05			3.91e-06
COCCn1nc2c(c1C)-c1cccc3c(CCCOc4cccc5ccccc45)c(C(=O)O)n(c13)CCCCOC2 (single isomer, unassigned; enantiomer 1) [Example 107, 2-(2-methoxyethyl)-3-methyl-7-[3-(naphthalen-1-yloxy)propyl]-2,10,11,12,13,15-hexahydropyrazolo[4′,3′:9,10][1,6]oxazacycloundecino[8,7,6-hi]indole-8-carboxylic acid-N-ethylethanamine Salt (Enantiomer 1)]						1.71	3.82e-06	1470	4.91	5.32e-06	> 3.3e-05 M and 2.08e-05 M			4.65e-06	1.73e-06
CCc1c2c(nn1C)COCCCCn1c(C(=O)O)c(CCCOc3cccc4ccccc34)c3ccc(C)c-2c31 (single isomer, unassigned; enantiomer 1) [Example 154, 3-Ethyl-2,4-dimethyl-7-[3-(1-naphthyloxy)propyl]-2,10,11,12,13,15-hexahydropyrazolo[4′,3′:9,10][1,6]oxazacycloundecino[8,7,6-hi]indole-8-carboxylic acid-N-ethylethanamine Salt (Enantiomer 1)]	4.11e-06			1.72e-05		1.28	2.26e-06	661	1.7					2.03e-06	1.08e-06

Now those with a lower IC50 (MCL-1), led by results:

IC50 (SUDHL10 [2]; Homo sapiens, SU-DHL10, 72 h) [M]	IC50 (SUDHL5 [3]; Homo sapiens, SU-DHL-5, 72 h) [M]	EC50 (SUDHL5 [5]; Homo sapiens, SU-DHL-5, 3 h) [nM]	IC50 (A2780; Homo sapiens, A2780, 72 h) [M]	EC50 (SUDHL10 [6]; Homo sapiens, SU-DHL10, 3 h) [µM]	IC50 (MCL-1) [nM]	IC50 (SUDHL5 [3]) [M]	EC50 (SUDHL5 [5]) [nM]	EC50 (SUDHL10 [6]) [µM]	IC50 (SUDHL10 [2]) [M]	IC50 (A2780)	SMILES	IC50 (SUDHL10 [1]; [7]) [M]	IC50 (SUDHL5 [4]; Homo sapiens, SU-DHL-5, 5 h, read-out: Cytotox SUDHL5 [M] (median), SUDHL5 cells, cytotoxicity induction, CellTiter-Glo, 5 h incubation, median)	IC50 (SUDHL10 [1]; [8]) [M]	IC50 (SUDHL5 [4]; [9]) [M]
1.03e-05			2.71e-05		1.19	3.38e-06	2830	6.64			Cc1c2c(nn1C1CC1)COCCCCn1c(C(=O)O)c(CCCOc3cccc4ccccc34)c3cccc-2c31 (single isomer, unassigned; enantiomer 1) [Example 093, 2-cyclopropyl-3-methyl-7-[3-(naphthalen-1-yloxy)propyl]-2,10,11,12,13,15-hexahydropyrazolo[4′,3′:9,10][1,6]oxazacycloundecino[8,7,6-hi]indole-8-carboxylic acid-N-ethylethanamine Salt (Enantiomer 1)]			7.2e-06	2.1e-06
			1.36e-05		1.17	1.85e-06	889	2.57	4.25e-06		CCc1c2c(nn1C)CN(C)CCCn1c(C(=O)O)c(CCCOc3cccc4ccccc34)c3ccc(C)c-2c31 (single isomer, unassigned; enantiomer 1) [Example 145, 11-Ethyl-7,10,12-trimethyl-1-[3-(1-naphthyloxy)propyl]-4,5,6,7,8,10-hexahydropyrazolo[3′,4′:7,8][1,5]diazecino[9,10,1-hi]indole-2-carboxylic acid-N-ethylethanamine Salt (Enantiomer 1)]			2.4e-06	1.4e-06
					0.93	1.26e-06	486	0.755	1.35e-06	1.19e-05 M	Cn1nc(COc2ccc(N3CCN(S(C)(=O)=O)CC3)cc2)c2c1COCCCCn1c(C(=O)O)c(CCCOc3cccc4ccccc34)c3cccc-2c31 (single isomer, unassigned; enantiomer 2) [Example 1-10, 1-methyl-3-({4-[4-(methylsulfonyl)piperazin-1-yl]phenoxy}methyl)-7-[3-(naphthalen-1-yloxy)propyl]-1,10,11,12,13,15-hexahydropyrazolo[4′,3′:9,10][1,6]oxazacycloundecino[8,7,6-hi]indole-8-carboxylic acid (enantiomer 2)]			4.74e-07	4.33e-07
5.87e-06			2e-05		0.919	2.56e-06	881	3.48			CCc1c2c(nn1C)COCCCCn1c(C(=O)O)c(CCCOc3cccc4ccccc34)c3cccc-2c31 (single isomer, unassigned; enantiomer 1) [Example 148, 3-Ethyl-2-methyl-7-[3-(1-naphthyloxy)propyl]-2,10,11,12,13,15-hexahydropyrazolo[4′,3′:9,10][1,6]oxazacycloundecino[8,7,6-hi]indole-8-carboxylic acid-N-ethylethanamine Salt (Enantiomer 1)]			2.4e-06	9.08e-07
